Results: US9346832B2, “Gold complexes for use in the treatment of cancer” (University of Kwazulu-Natal, priority 2010, dated 2016)
“Also recorded” adds a separate entry of the source. Like-named read-outs stand apart in the source and are kept apart here.

Key:
[1] = test system: 60 human cancer cell lines; assay: NCI-60 five-dose screen, mean cytotoxicity over 60 human cancer cell lines; format: cell-based
Method: (§1) The gold(III) complexes of this invention were screened by the National Cancer Institute (NCI, USA) against their panel of 60 different human cancer cell lines. These screens initially entail a one-dose test for the compound at a high concentration (10 μM; e.g. FIGS. 5, 6 and 7). Compounds with a good cytotoxicity profile in the one-dose screen are then subjected to a five-dose screen for the full panel of sixty human cancer cell lines (the so-called 5-dose NCI-60 screen). In the full five-dose screen, the compound concentration is varied in five doses from 10^−8 M to 10^−4 M in order to establish a dose-response function of percentage cell growth versus the concentration of the test agent. […] Similar data will shortly be available for compounds 1.1Y^1b and 1.5Y^1a as these derivatives are in 5-dose screens currently at the NCI.
The mean cytotoxicity data summarized in Scheme 7 were compiled over 60 human cancer cell lines from the NCI database. […] The dose-response curves for the bis(pyrrolide-imine) chelates of the invention are steeper, or harder, than those of all the compounds compared in Scheme 7.

[2] = test system: 60 human cancer cell lines; assay: NCI-60 one-dose screen; format: cell-based; conditions: single dose 10 μM
Method: as §1
The results of one-dose NCI-60 screens are noteworthy and merit some discussion as they quickly indicate activity profiles, cell-line specificity, and general cytotoxicity for the test agents across multiple human cancer cell lines. FIGS. 5, 6, and 7 set out the one-dose screening results for MA_AuPr (FIG. 5), KA_AumacroPr (FIG. 6), and KA_AuMelmPr (FIG. 7) obtained by the NCI. These three compounds are the parent derivatives that are representative of the three new types of gold(III) Schiff base chelate relevant to this invention. All other compounds synthesized as part of this invention have been similarly analyzed.

Microsomal clearance = format: in vitro ADME; conditions: microsomes
Description: First, the compound is not genotoxic (i.e. mutagenic).

plasma protein = assay: Plasma protein binding; format: in vitro ADME; conditions: LC-MS
Description: (§2) This is why binding to DNA of the intact chelate occurs (FIGS. 14 and 20). However, it is noteworthy that hydrolysis of a Au(III)-Npyrrole bond is a reaction that may be catalyzed by enzymes in plasma and could account for the plasma instability of MA_AuPr.

topoisomerase II = topoisomerase II (Homo sapiens, UniProt P11388); assay: Topoisomerase II DNA cleavage/relaxation assay, supercoiled plasmid DNA, EB gel (TopoGEN protocol); format: biochemical
Chain of topoisomerase II (P11388 whole entry): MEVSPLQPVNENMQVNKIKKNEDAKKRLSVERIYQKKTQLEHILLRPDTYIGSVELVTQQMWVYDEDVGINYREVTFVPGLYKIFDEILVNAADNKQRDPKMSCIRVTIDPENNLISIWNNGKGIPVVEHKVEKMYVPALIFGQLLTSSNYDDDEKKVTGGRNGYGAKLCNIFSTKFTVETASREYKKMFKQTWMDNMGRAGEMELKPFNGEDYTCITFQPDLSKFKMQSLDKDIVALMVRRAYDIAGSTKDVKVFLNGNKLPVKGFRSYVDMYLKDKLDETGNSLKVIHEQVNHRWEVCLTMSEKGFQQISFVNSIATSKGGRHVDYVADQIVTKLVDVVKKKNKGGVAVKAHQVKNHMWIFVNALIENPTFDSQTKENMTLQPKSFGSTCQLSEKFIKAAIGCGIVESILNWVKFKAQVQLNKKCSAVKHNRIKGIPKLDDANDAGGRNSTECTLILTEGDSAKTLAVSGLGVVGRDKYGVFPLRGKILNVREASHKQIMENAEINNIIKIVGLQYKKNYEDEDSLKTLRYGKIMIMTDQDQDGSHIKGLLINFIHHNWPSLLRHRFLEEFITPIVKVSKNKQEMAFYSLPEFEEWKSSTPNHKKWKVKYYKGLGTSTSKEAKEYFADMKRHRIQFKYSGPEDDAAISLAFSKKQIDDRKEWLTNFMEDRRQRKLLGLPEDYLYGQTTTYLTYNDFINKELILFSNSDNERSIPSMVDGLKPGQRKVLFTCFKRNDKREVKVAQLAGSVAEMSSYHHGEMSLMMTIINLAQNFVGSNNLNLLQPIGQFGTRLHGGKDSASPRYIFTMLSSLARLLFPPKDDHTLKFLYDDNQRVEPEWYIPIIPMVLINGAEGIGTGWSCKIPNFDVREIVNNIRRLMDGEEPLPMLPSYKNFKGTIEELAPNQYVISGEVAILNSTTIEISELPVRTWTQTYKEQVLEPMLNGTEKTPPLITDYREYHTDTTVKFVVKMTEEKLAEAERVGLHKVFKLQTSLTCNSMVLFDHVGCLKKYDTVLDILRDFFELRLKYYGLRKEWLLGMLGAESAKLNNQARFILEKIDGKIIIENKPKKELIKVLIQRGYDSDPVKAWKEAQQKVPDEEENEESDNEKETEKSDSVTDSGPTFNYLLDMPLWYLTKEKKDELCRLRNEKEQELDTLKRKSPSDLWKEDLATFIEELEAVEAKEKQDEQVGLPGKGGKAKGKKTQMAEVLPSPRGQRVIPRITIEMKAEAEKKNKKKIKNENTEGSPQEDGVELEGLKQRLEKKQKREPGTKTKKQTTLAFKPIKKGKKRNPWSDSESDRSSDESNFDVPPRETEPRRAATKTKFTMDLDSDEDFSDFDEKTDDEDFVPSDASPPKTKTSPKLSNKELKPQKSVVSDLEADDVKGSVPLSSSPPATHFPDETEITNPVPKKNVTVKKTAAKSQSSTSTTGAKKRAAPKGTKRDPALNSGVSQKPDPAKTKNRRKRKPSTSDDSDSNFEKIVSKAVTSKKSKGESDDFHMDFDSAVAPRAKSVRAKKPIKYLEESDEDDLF
Method: The compound MA_AuPr clearly targets topoisomerase II if the statistical analysis of the NCI data for a range of drugs shown in FIG. 13 is correct. MA_AuPr was therefore assayed for its action against topoisomerase II in vitro using TopoGEN's standard protocol over a wide range of test agent concentrations (0.005 to 500 μM) in order to obtain direct experimental proof for the apparent cellular target of the compound to ensure that a fundamental understanding of the mechanism of action of this new class of Au(III) compounds exists. These experiments were performed by the company TopoGEN and at the University of Central Florida. The DNA cleavage experiments were performed in vitro using purified topoisomerase I and II enzymes and supercoiled plasmid DNA as the substrate. The controls that were used in the experiment were linear marker DNA as well as reactions without the gold(III) complex and high concentrations of VP16. The compound VP16 (etoposide) is a commercially available DNA intercalator chemotherapeutic agent, widely used in the treatment of lung and testicular cancers as well as lymphomas. The choice of VP16 as a control is based on the fact that it is a poor topoisomerase II inhibitor, but is a powerful topoisomerase II poison which arrests the enzyme's cycle at the ternary drug-enzyme-DNA cleavage complex stage, leading to observation of linear DNA fragments upon SDS denaturation of the enzyme (i.e., work-up). Comparison of the VP16 results with the results of MA_AuPr would therefore give a good indication of whether the gold(III) chelate is an inhibitor or a poison.
Lane 1 of the gel (FIG. 14) is the control experiment with only supercoiled plasmid DNA present. The control contains no topoisomerase II and so the DNA supercoiled structure cannot be relaxed, as the topoisomerase II enzyme would usually do. […] At a higher concentration of the test agent (50 μM), both supercoiled plasmid DNA and linear cleavage products are observed. […] At very high concentrations (>500 μM), MA_AuPr behaves exclusively as a catalytic inhibitor of the enzyme.
The role of gold(III) in the efficacy of the compound was determined by modifying the structure of MA_AuPr by replacing the Au(III) cation with Pd(II) to afford MA_PdPr (the isoelectronic square planar coordination complex of known structure and geometry^31) and carrying out the DNA relaxation assay with topoisomerase II as before. The metal-free ligand (MA_H2PrLig) was tested under identical conditions to confirm that the mechanism of action is related to the intact structure of the metal chelate.

[3] = test system: HepG2 human hepatocellular carcinoma cells; assay: HepG2 cytotoxicity / cell health parameters; format: cell-based
Description: The data for MA_AuPr in Scheme 22 are consistent with a cytotoxic compound capable of inducing apoptosis (programmed cell death) and, indeed, a compound that performs better than the control drug. […] Other cell health parameters which respond are a loss of total cells per well (indicating toxicity due to necrosis, apoptosis or a reduction in cellular proliferation), an increase in nuclear area (indicating necrosis or G2 cell cycle arrest), an increase in cytochrome c release (implying activation of a signalling cascade leading to apoptosis). The latter is particularly relevant as we may rule out cell death by necrosis in the case of MA_AuPr. The mechanism of action of the compound thus leads to cell cycle arrest in the G2 phase and the induction of apoptosis (highly desirable for an anticancer drug). […] Since the compound induces cytochrome c release, cytotoxicity involves apoptosis.

[4] = format: in vivo, mouse
Method: FIG. 22 is a plot showing the mouse survival data as a function of metallodrug dose for MA_AuPr.
A single dose of the compound was administered by injection over the first week followed by two injections per week per mouse for a total period of 50 days.

[5] = Hydrolysis in aqueous solution; format: physicochemical; conditions: aqueous / phosphate buffered aqueous solutions
Description: as §2

C1=NCCCN=Cc2ccc[n]2[Au+][n]2cccc21.[Cl-] [MA_AuPr, 2,2′-{propane-1,3-diylbis[nitrilo(E)methylylidene]}bis(pyrrol-1-ido)gold(III) chloride]
fraction of cancer cell lines equivalently or more susceptible than to cisplatin ([1]; 60 human cancer cell lines): ca. 25% | CC50 ([1]; mean over 60 human cancer cell lines, 50% cell death, read-out: LC50 (the source's name)): 49 µM | GI50 ([1]; mean over 60 human cancer cell lines, 50% growth inhibition): 7 µM | TGI (concentration for total growth inhibition) ([1]; mean over 60 human cancer cell lines, 100% (total) growth inhibition, read-out: TGI or IC50): 20 µM | increase in concentration from 50% growth inhibition to 50% cell kill ([1]; on average over the full 60 cell lines): 7 fold | growth inhibition activity relative to cisplatin, on average ([1]; plot of −log(GI50/M) versus cisplatin, FIG. 10): 95% | one-dose screening result [2]: leukemia, breast, and colon cancer cell lines are inherently more susceptible | Microsomal clearance t1/2 (Microsomal clearance): t1/2 < 10 min | Plasma protein binding (plasma protein): did not bind to plasma protein; also recorded: No binding - drug | concentration at which compound behaves exclusively as catalytic inhibitor (topoisomerase II): > 500 µM | action on topoisomerase II (topoisomerase II; compared with VP-16 (etoposide)): both a poison and a catalytic topoisomerase II inhibitor | concentration of catalytic inhibition of topoisomerase II (topoisomerase II; supercoiled plasmid DNA not relaxed): 50 µM | concentration at which topoisomerase II poisoning (DNA cleavage induction) is observed (topoisomerase II; supercoiled plasmid DNA, linear cleavage products): 0.5 µM | Cytotoxicity (Hep-G2) [3]: Strong positive | Cytochrome C release MEC ([3]; HepG2): 19 µM | DNA structure MEC ([3]; HepG2): >19 µM | Mitochondrial mass MEC ([3]; HepG2): 2.1 µM | Mitochondrial membrane potential MEC ([3]; HepG2): 6.2 µM | Nuclear Area MEC ([3]; HepG2): 6.2 µM | Cell Loss MEC ([3]; HepG2, minimum effective concentration): <0.23 µM | AC50 ([3]; HepG2, read-out: Cell Loss AC50): 7.4 µM | AC50 ([3]; HepG2, read-out: Cytochrome C release AC50): 33 µM | AC50 ([3]; HepG2, read-out: Membrane permeability AC50): 16 µM | AC50 ([3]; HepG2, read-out: Mitochondrial mass AC50): 41 µM | AC50 ([3]; HepG2, read-out: Mitochondrial membrane potential AC50): > 500 µM | AC50 ([3]; HepG2, read-out: Nuclear Area AC50): 17 µM | health and weight of mice ([4]; 1 to 30 μmol/kg, 50 days): remained healthy and showed no abnormal weight changes | acute toxicity ([4]; mice, injection, 1 to 30 μmol/kg doses): > 30 μmol/kg/week | chronic toxicity ([4]; mice, two injections per week, 50 days): > 60 μmol/kg/week | hydrolysis [5]: did not show hydrolysis
